18 molecules from patent US10214546B2, “Btk inhibitors” (MERCK SHARP & DOHME CORP., priority 2014, dated 2019) can be followed below.

Experiment [1] deals with adenosine uptake into HeLa cells. The experiment in a line: [3H]Adenosine uptake assay in HeLa cells. It counts as cell-based. As to conditions: [3H]adenosine accumulation in HeLa cells, compound range 10 μM to 0.032 nM, read-out: ADU inhibition IC50. As for the experimental part: Compounds are also screened in an adenosine uptake functional cellular assay using the protocol described below:
[^3H]Adenosine Uptake Assay Methods
Adenosine uptake activity was determined by monitoring the accumulation of tritiated adenosine into HeLa cells (ATCC catalog # CCL-2) using a PMT-based radiometric detection instrument. In this assay, the potency (IC50) of each compound was determined from a ten point (1:3 serial dilution; final compound concentration range in assay from 10 µM to […]) titration curve using the following outlined procedure. To each well of a 96-well CytoStar-T scintillating microplate (Perkin Elmer Catalog # RPNQ0163), 25 000 HeLa cells in 100 µL of growth medium comprising: Minimum Essential Media (Life Technologies Catalog #11095-080)+10% (v/v) foetal bovine serum (FBS; Sigma Aldrich Catalog # F2442) was added. These cells were incubated overnight at 37° C. in a humidified atmosphere with 5% (v/v) CO2. After this time the growth medium was removed and replaced with 40 μL assay medium comprising: Hanks balanced salts solution (HBSS; Thermo Fisher Catalog # SH30268.01)+5% (v/v) FBS. Compound stock solutions in DMSO were diluted in assay medium to 2.5× final compound concentration maintaining a constant DMSO concentration of 0.25% (v/v). 40 μL of compound in assay medium was dispensed into individual wells of the Cytostar-T plates and the plates were incubated for 30 minutes under ambient laboratory conditions. Following this incubation, 20 μL of 500 nM [^3H] adenosine (American Radiolabeled Chemicals Inc. […] The amount of radiolabel accumulation was then determined using a Perkin Elmer Topcount NXT microplate reader. In brief, HeLa cells adhere to the bottom of the Cytostar-T plate, uptake of [^3H]adenosine into these cells brings the radiolabel into sufficient proximity to excite the scintillant in the base of the plates. These events are captured by single PMT, time-resolved coincidence counting. IC50 values were determined by 4 parameter robust fit of counts per second values vs. (Log10) compound concentrations.

For experiment [2], the target named is BTK enzyme (recombinant full-length BTK, hBTK) (Homo sapiens (Human), UniProt Q06187). Description: BTK enzymatic activity LANCE TR-FRET assay. It counts as biochemical. As to conditions: 50 pM hBTK, 25 μM ATP, 2 μM biotin-A5-peptide; compound range 1 μM to 0.017 nM; read-out: BTK binding IC50. As for the experimental part:
Btk Enzyme Activity Assay Methods
BTK enzymatic activity was determined with the LANCE (Lanthanide Chelate Excite) TR-FRET (Time-resolved fluorescence resonance energy transfer) assay. […] Phosphorylation reactions were allowed to proceed for 120 minutes. […] After 60 minutes incubation with detection reagents, reaction plates were read on a PerkinElmer EnVision plate reader using standard TR-FRET protocol. […] IC50 values were determined by 4 parameter robust fit of TR-FRET ratio values vs. (Log10) compound concentrations.
In general terms: In TR-FRET formats the signal depends on donor and acceptor labels being close together.

Like-named read-outs stand apart in the source and are kept apart here.

Sequence of BTK enzyme (recombinant full-length BTK, hBTK) (Q06187 whole entry): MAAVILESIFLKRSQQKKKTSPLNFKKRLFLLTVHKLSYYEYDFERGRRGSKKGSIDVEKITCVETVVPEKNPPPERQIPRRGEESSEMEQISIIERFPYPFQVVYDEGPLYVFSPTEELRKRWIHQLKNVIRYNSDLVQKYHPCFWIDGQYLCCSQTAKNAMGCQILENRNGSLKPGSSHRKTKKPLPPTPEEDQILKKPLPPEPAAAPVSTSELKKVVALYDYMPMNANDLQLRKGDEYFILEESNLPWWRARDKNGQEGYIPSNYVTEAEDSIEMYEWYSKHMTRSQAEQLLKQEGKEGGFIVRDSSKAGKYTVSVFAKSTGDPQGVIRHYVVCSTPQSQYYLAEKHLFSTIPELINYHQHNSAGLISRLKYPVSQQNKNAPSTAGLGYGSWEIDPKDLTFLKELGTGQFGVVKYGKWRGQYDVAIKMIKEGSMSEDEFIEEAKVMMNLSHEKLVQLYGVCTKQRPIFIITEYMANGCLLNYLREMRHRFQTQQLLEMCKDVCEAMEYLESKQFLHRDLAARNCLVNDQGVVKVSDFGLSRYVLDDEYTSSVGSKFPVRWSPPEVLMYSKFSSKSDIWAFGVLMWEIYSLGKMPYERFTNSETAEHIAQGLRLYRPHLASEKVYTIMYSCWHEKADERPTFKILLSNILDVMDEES

Broadly, the IC50 is the concentration that inhibits the measured activity by half. As to `CC(O)(c1cccc(C(F)(F)F)c1)c1ccc(-c2nc([C@@H]3CC[C@H]4CCC(=O)N4C3)n3ccnc(N)c23)cc1F` (stereo partly drawn) [Example 54, (6R,8aS)-6-[8-amino-1-(3-fluoro-4-{1-hydroxy-1-[3-(trifluoromethyl)phenyl]ethyl}phenyl)imidazo [1,5-a]pyrazin-3-yl]hexahydroindolizin-3(2H)-one], the IC50 was 473 nM in experiment [1] and 1000 nM in experiment [2].
With `CO[C@](C)(c1ccc(-c2nc([C@@H]3CC[C@H]4CCC(=O)N4C3)n3ccnc(N)c23)cc1)c1cccc(C(F)(F)F)c1` [Example 89, (6R,8aS)-6-[8-amino-1-(4-{(1R)-1-methoxy-1-[3-(trifluoromethyl)phenyl]ethyl}phenyl)imidazo [1,5-a]pyrazin-3-yl]hexahydroindolizin-3(2H)-one], the IC50 stood at 3490 nM in experiment [1] (Homo sapiens, HeLa) and 1000 nM in experiment [2].
In the case of `Nc1nccn2c([C@@H]3CC[C@H]4CCC(=O)N4C3)nc(-c3ccc(C(O)(c4cccc(C(F)(F)F)c4)C(F)F)cc3)c12` (stereo partly drawn) [Example 112, (6R,8aS)-6-[8-amino-1-(4-{2,2-difluoro-1-hydroxy-1-[3-(trifluoromethyl)phenyl]ethyl}phenyl)imidazo [1,5-a]pyrazin-3-yl]hexahydroindolizin-3(2H)-one], the IC50 in experiment [1] was 1870 nM; in experiment [2], 5.6 nM.
For the molecule `C[C@](O)(c1ccc(-c2nc([C@@H]3CC[C@H]4CCC(=O)N4C3)n3c(Cl)cnc(N)c23)cc1)c1cccc(CC(F)(F)F)c1` [Example 122, (6R,8aS)-6-[8-amino-5-chloro-1-(4-{(1S)-1-hydroxy-1-(3-(2,2,2-trifluoroethyl)phenyl]ethyl}phenyl)imidazo[1,5-a]pyrazin-3-yl]hexahydroindolizin-3(2H)-one], the IC50 in experiment [1] (Homo sapiens, HeLa) was found to be 966 nM; in experiment [2], 2.7 nM.
With `CC(O)(c1cccc(C(F)(F)F)c1)c1ccc(-c2nc([C@@H]3CC[C@@H]4N(C3)C(=O)CC4(C)C)n3ccnc(N)c23)c(F)c1` (stereo partly drawn) [Example 194, (6R,8aS)-6-[8-amino-1-(2-fluoro-4-{1-hydroxy-1-[3-(trifluoromethyl)phenyl]ethyl}phenyl)imidazo [1,5-a]pyrazin-3-yl]-1,1-dimethylhexahydroindolizin-3(2H)-one], the 50% inhibitory concentration (IC50) stood at 1300 nM in experiment [1] and 1.1 nM in experiment [2].
As for `CCOc1cc([C@@](C)(O)c2cccc(C(F)(F)F)c2)cc(F)c1-c1nc([C@@H]2CC[C@H]3CCC(=O)N3C2)n2ccnc(N)c12` [Example 212, (6R,8aS)-6-[8-amino-1-(2-ethoxy-6-fluoro-4-{(1S)-1-hydroxy-1-[3-(trifluoromethyl)phenyl]ethyl}phenyl)imidazo [1,5-a]pyrazin-3-yl]hexahydroindolizin-3(2H)-one], the IC50 in experiment [1] (Homo sapiens, HeLa) was 3520 nM; in experiment [2], 329 nM.
As to `C[C@](O)(c1ccc(-c2nc([C@@H]3CC[C@H]4CCC(=O)N4C3)n3ccnc(N)c23)cc1)c1cccc(-c2ccccc2)c1` [Example 58, (6R,8aS)-6-(8-amino-1-{4-[(1S)-1-biphenyl-3-yl-1-hydroxyethyl]phenyl}imidazo[1,5-a]pyrazin-3-yl)hexahydroindolizin-3(2H)-one], the IC50 came to 450 nM in experiment [1] (Homo sapiens, HeLa) and 63.1 nM in experiment [2].
Regarding `C[C@](O)(c1cccc(C(F)(F)F)c1)c1ccc(-c2nc([C@@H]3CC[C@H]4CCC(=O)N4C3)n3ccnc(N)c23)c(CO)c1` [Example 20, (6R,8aS)-6-(8-amino-1-(4-((R)-1-hydroxy-1-(3-(trifluoromethyl)phenyl)ethyl)-2-(hydroxymethyl)phenyl)imidazo[1,5-a]pyrazin-3-yl)hexahydroindolizin-3(2H)-one], the IC50 was 2570 nM in experiment [1] (Homo sapiens, HeLa) and 230 nM in experiment [2].
Regarding `C[C@@](O)(c1ccc(-c2nc([C@@H]3CC[C@H]4CCC(=O)N4C3)n3c(C(F)(F)F)cnc(N)c23)cc1)c1cccc(C(F)(F)F)c1` [Example 173, (6R,8aS)-6-[8-amino-1-(4-{(1R)-1-hydroxy-1-[3-(trifluoromethyl)phenyl]ethyl}phenyl)-5-(trifluoromethyl)imidazo [1,5-a]pyrazin-3-yl]hexahydroindolizin-3(2H)-one], the IC50 came to 5110 nM in experiment [1] (Homo sapiens, HeLa) and 22.2 nM in experiment [2].
Regarding `C[C@@](O)(c1ccc(-c2nc([C@@H]3CC[C@H]4CCC(=O)N4C3)n3ccnc(N)c23)cc1)c1cccc(C(F)(F)F)n1` [Example 138, (6R,8aS)-6-[8-amino-1-(4-{(1R)-1-hydroxy-1-[6-(trifluoromethyl)pyridin-2-yl]ethyl}phenyl)imidazo [1,5-a]pyrazin-3-yl]hexahydroindolizin-3(2H)-one], the IC50 in experiment [1] (Homo sapiens, HeLa) worked out at 4760 nM; in experiment [2], 25 nM.
For `CN1CC[C@@H]2CC[C@@H](c3nc(-c4ccc([C@@](C)(O)c5cccc(C(F)(F)F)c5)cc4)c4c(N)nccn34)CN2C1=O` [Example 114, (4aS,7R)-7-[8-amino-1-(4-{(1R)-1-hydroxy-1-[3-(trifluoromethyl)phenyl]ethyl}phenyl)imidazo [1,5-a]pyrazin-3-yl]-2-methyloctahydro-1H-pyrido[1,2-c]pyrimidin-1-one] the same measures were 888 nM and 0.22 nM.
For `C[C@](O)(c1ccc(-c2nc([C@@H]3CC[C@H]4CCCN4C3)n3ccnc(N)c23)cc1)c1cccc(C(F)(F)F)c1` [Example 63, (1S)-1-(4-{8-amino-3-[(6R,8aS)-octahydroindolizin-6-yl]imidazo[1,5-a]pyrazin-1-yl}phenyl)-1-[3-(trifluoromethyl)phenyl] ethanol] the same measures were 1470 nM and 1000 nM.
In the case of `COc1cc(-c2nc([C@@H]3CC[C@H]4CCC(=O)N4C3)n3ccnc(N)c23)ccc1[C@](C)(O)c1cccc(C2CC2)c1` [Example 98, (6R,8aS)-6-(8-amino-1-{4-[(1R)-1-(3-cyclopropylphenyl)-1-hydroxyethyl]-3-methoxyphenyl}imidazo [1,5-a]pyrazin-3-yl)hexahydroindolizin-3(2H)-one], the half-maximal inhibitory concentration (IC50) came out at 3170 nM in experiment [1] (Homo sapiens, HeLa) and 0.28 nM in experiment [2].
With `CCOc1cc([C@@](C)(O)c2cccc(C(F)(F)F)c2)ccc1-c1nc([C@@H]2CC[C@H]3CCC(=O)N3C2)n2c(F)cnc(N)c12` [Example 204, (6R,8aS)-6-[8-amino-1-(2-ethoxy-4-{(1S)-1-hydroxy-1-[3-(trifluoromethyl)phenyl]ethyl}phenyl)-5-fluoroimidazo[1,5-a]pyrazin-3-yl]hexahydroindolizin-3(2H)-one], the IC50 was determined as 5870 nM in experiment [1] (Homo sapiens, HeLa) and 2.2 nM in experiment [2].
In the case of `C[C@@](O)(c1ccc(-c2nc([C@@H]3CC[C@@H]4[C@@H](C(F)(F)F)CC(=O)N4C3)n3ccnc(N)c23)cc1)c1cccc(C(F)(F)F)c1` [Example 172, (1S,6R,8aR)-6-[8-amino-1-(4-{(1R)-1-hydroxy-1-[3-(trifluoromethyl)phenyl]ethyl}phenyl)imidazo [1,5-a]pyrazin-3-yl]-1-(trifluoromethyl) hexahydroindolizin-3(2H)-one], the IC50 in experiment [1] (Homo sapiens, HeLa) was 5320 nM; in experiment [2] it was 258 nM.
For `COc1cccc([C@](C)(O)c2ccc(-c3nc([C@@H]4CC[C@H]5CCC(=O)N5C4)n4ccnc(N)c34)cc2)c1` [Example 45, (6R,8aS)-6-(8-amino-1-{4-[(1R)-1-hydroxy-1-(3-methoxyphenyl)ethyl]phenyl}imidazo[1,5-a]pyrazin-3-yl)hexahydroindolizin-3(2H)-one] the same measures were 2760 nM and 1.1 nM.
As to `CC(O)(c1cccc(C(F)F)c1)c1ccc(-c2nc([C@@H]3CC[C@H]4CCC(=O)N4C3)n3ccnc(N)c23)c(F)c1` (stereo partly drawn) [Example 192, (6R,8aS)-6-(8-amino-1-(4-{1-[3-(difluoromethyl)phenyl]-1-hydroxyethyl}-2-fluorophenyl)imidazo[1,5-a]pyrazin-3-yl]hexahydroindolizin-3(2H)-one], the results for the IC50 in experiment [1] and in experiment [2] were 522 nM and 110 nM, respectively.
On to `C[C@@](O)(c1ccc(-c2nc([C@@H]3CC[C@H]4CCC(=O)N4C3)n3ccnc(N)c23)cc1)c1cccc(OC(F)(F)F)c1` [Example 57, (6R,8aS)-6-[8-amino-1-(4-{(1R)-1-hydroxy-1-[3-(trifluoromethoxy)phenyl]ethyl}phenyl)imidazo [1,5-a]pyrazin-3-yl]hexahydroindolizin-3(2H)-one], for which the half-inhibitory concentration (IC50) in experiment [1] (Homo sapiens, HeLa) came to 3320 nM; in experiment [2], 0.88 nM.
